Assay [1] relates to B. microti. The assay can be described thus: In vivo assessment of chemically attenuated B. microti pRBCs in BALB/c mice. Particulars: intravenous inoculation. As to the method: FIG. 1: In vivo assessment of chemically attenuated B. microti pRBCs. A and B. To assess attenuation of B. microti parasitized red blood cells (pRBCs), BALB/c mice (n=5/group) were injected intravenously with 10^6 pRBCs treated with 2 μM, 200 nM or 20 nM of Tafuramycin-A (TF-A). Control mice received 10^6 untreated pRBCs. C and D. The impact of parasite dose on protection induced by a chemically attenuated whole parasite B. microti vaccine. BALB/c mice (n=5/group) were immunized intravenously on days 0, 14 and 28 with 10^4, 10^5 or 10^6 B. microti parasitized red blood cells (pRBCs) that were chemically attenuated with 2 μM of Tafuramycin-A (TF-A). Control mice received 10^6 TF-A treated normal mouse red blood cells (mRBCs). Mice were challenged with 10^6 B. microti pRBCs two weeks after the final immunization. (A and C: Parasitemias were monitored by microscopy post challenge. B and D: Mice were assessed for signs of disease and were scored based on defined criteria listed on a clinical scoresheet. Data are expressed as mean±SEM). […]
Chemical attenuation of B. microti with Tafuramycin-A (TF-A) was conducted as described previously (Good et al., 2013). […] A cell count was performed using a haemocytometer, the immunizing dose calculated, and the blood was resuspended in the required volume of PBS for injection. […]

Assay [2] concerns B. microti. The assay can be described thus: Assessment of chemically attenuated B. microti pRBCs in SCID mice. The format is in vivo. Particulars: 10^6 B. microti pRBCs treated with 2 μM TF-A, intravenous, immunodeficient SCID mice. As to the method: FIG. 5: Assessment of chemically attenuated B. microti pRBCs in BALB/c and SCID mice. Related to FIGS. 1 and 2. BALB/c and SCID mice (n=5/group) were injected intravenously with 10^6 B. microti parasitized red blood cells (pRBCs) that were chemically attenuated with 2 μM of Tafuramycin-A (TF-A). Control mice received pRBCs that were not treated with TF-A. A. Parasitemia was monitored by microscopy post challenge. B. Mice were assessed for signs of disease and were scored based on defined criteria listed on a clinical scoresheet. Data are expressed as mean±SEM.
Chemical attenuation of B. microti with Tafuramycin-A (TF-A) was conducted as described previously (Good et al., 2013). Blood from mice infected with B. microti (as a source of pRBCs) and from naïve mice (as a source of mRBCs) were collected into EDTA tubes. TF-A was diluted to a 20 μM final concentration in RPMI-1640 with glutamine and added to a 25 cm^2 vented tissue culture flask to give a final TF-A concentration of 2 μM, 200 nM or 20 nM as required. One hundred microlitres of blood containing B. microti pRBCs or mRBCs was added into each flask, as required. […] A cell count was performed using a haemocytometer, the immunizing dose calculated, and the blood was resuspended in the required volume of PBS for injection. […]

`COc1cc2cc(C(=O)N3CC(CCl)c4c3cc(O)c3ccoc43)[nH]c2c(OC)c1OC` (stereo not shown) [TF-A, seco-iso-cyclopropylfurano[2,3-e]indoline-TMI]: the “microscopically patent parasitemia and clinical signs of infection” value in the assay with B. microti [1] (10^6 B. microti pRBCs attenuated with 200 nM TF-A) and in the assay with B. microti [1] (10^6 B. microti pRBCs attenuated with 2 μM TF-A) was “did not develop microscopically patent parasitemia nor clinical signs of infection” in each case. The “signs of clinical disease” value in the assay with B. microti [2] is on record as “remained without signs of clinical disease”. In the assay on B. microti [2], the “time microscopically clear of parasites” value was determined as 70 days.

The values above are taken from US20240238398A1, “IMMUNOGENIC COMPOSITION” (GRIFFITH UNIVERSITY, priority 2021, published 2024).
